Source: patent publication US9738902B2, “Modified PYR/PYL receptors activated by ligands” (priority 2013, dated 2017)

Tests used:
PYR1 K59R A160T = biological target: T1, PYR1 K59R A160T (Arabidopsis thaliana, UniProt O49686, A160T/K59R); assay: Y2H Pocket Library Screen (HAB1, X-gal); assay type: cell-based
T1 construct: expressed in transfected cells; host or cells: S. cerevisiae Y190
Summary of the method: (§1)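 Each mutant receptor was expressed with HAB1 in the Y190 reporter strain. Cells were spotted onto SD agar minus Leu and Trp supplemented with a 100 μM test compound. Plates incubated two days at 30° C, then colonies were lysed with chloroform and stained with X-gal.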

PYR1 K59R A160V = biological target: T2, PYR1 K59R A160V (Arabidopsis thaliana, UniProt O49686, A160V/K59R); assay: Y2H Pocket Library Screen (HAB1, X-gal); assay type: cell-based
T2 construct: expressed in transfected cells; host or cells: S. cerevisiae Y190
T2 sequence (O49686 whole entry K59R/A160V): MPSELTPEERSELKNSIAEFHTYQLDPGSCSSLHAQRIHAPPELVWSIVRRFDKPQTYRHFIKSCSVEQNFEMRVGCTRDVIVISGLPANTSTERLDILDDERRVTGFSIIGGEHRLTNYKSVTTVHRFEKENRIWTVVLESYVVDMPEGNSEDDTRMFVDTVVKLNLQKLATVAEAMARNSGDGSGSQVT
T2 sequence (Q9CAJ0 23-511 partner): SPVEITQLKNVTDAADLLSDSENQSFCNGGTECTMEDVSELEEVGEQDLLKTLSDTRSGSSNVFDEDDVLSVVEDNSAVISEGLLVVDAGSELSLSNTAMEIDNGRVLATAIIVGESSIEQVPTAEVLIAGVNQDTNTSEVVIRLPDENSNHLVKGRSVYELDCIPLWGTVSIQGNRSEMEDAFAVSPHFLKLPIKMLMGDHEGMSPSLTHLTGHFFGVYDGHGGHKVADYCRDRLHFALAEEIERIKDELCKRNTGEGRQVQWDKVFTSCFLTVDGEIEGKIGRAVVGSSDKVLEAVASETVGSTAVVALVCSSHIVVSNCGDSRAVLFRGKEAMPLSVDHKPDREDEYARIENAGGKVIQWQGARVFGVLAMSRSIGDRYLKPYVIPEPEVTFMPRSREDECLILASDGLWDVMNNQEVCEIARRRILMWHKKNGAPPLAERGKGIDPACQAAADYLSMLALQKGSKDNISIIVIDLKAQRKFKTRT
Summary of the method: as §1

PYR1 K59R A160Y = biological target: T3, PYR1 K59R A160Y (Arabidopsis thaliana, UniProt O49686, A160Y/K59R); assay: Y2H Pocket Library Screen (HAB1, X-gal); assay type: cell-based
T3 construct: expressed in transfected cells; host or cells: S. cerevisiae Y190
T3 sequence (O49686 whole entry K59R/A160Y): as the sequence (O49686 whole entry K59R/A160V) above, with V160Y counted along it
T3 sequence (Q9CAJ0 23-511 partner): as the sequence (Q9CAJ0 23-511 partner) above
Summary of the method: as §1

PYR1 K59R E141L = biological target: T4, PYR1 K59R E141L (Arabidopsis thaliana, UniProt O49686, E141L/K59R); assay: Y2H Pocket Library Screen (HAB1, X-gal); assay type: cell-based
T4 construct: expressed in transfected cells; host or cells: S. cerevisiae Y190 two-hybrid reporter strain
T4 sequence (O49686 whole entry K59R/E141L): as the sequence (O49686 whole entry K59R/A160V) above, with E141L, V160A counted along it
T4 sequence (Q9CAJ0 23-511 partner): as the sequence (Q9CAJ0 23-511 partner) above
Summary of the method: as §1

PYR1 K59R H115N = biological target: T5, PYR1 K59R H115N (Arabidopsis thaliana, UniProt O49686, H115N/K59R); assay: Y2H Pocket Library Screen (HAB1, X-gal); assay type: cell-based
T5 construct: expressed in transfected cells; host or cells: S. cerevisiae Y190 two-hybrid reporter strain
T5 sequence (O49686 whole entry K59R/H115N): as the sequence (O49686 whole entry K59R/A160V) above, with H115N, V160A counted along it
T5 sequence (Q9CAJ0 23-511 partner): as the sequence (Q9CAJ0 23-511 partner) above
Summary of the method: as §1

PYR1 K59R L87P = biological target: T6, PYR1 K59R L87P (Arabidopsis thaliana, UniProt O49686, K59R/L87P); assay: Y2H Pocket Library Screen (HAB1, X-gal); assay type: cell-based
T6 construct: expressed in transfected cells; host or cells: S. cerevisiae Y190 yeast two-hybrid reporter strain
T6 sequence (O49686 whole entry K59R/L87P): as the sequence (O49686 whole entry K59R/A160V) above, with L87P, V160A counted along it
T6 sequence (Q9CAJ0 23-511 partner): as the sequence (Q9CAJ0 23-511 partner) above
Summary of the method: as §1

PYR1 K59R M158C = biological target: T7, PYR1 K59R M158C (Arabidopsis thaliana, UniProt O49686, K59R/M158C); assay: Y2H Pocket Library Screen (HAB1, X-gal); assay type: cell-based
T7 construct: expressed in transfected cells; host or cells: S. cerevisiae Y190 two-hybrid reporter strain
T7 sequence (O49686 whole entry K59R/M158C): as the sequence (O49686 whole entry K59R/A160V) above, with M158C, V160A counted along it
T7 sequence (Q9CAJ0 23-511, further chain): as the sequence (Q9CAJ0 23-511 partner) above
Summary of the method: as §1

PYR1 K59R N167C = biological target: T8, PYR1 K59R N167C (Arabidopsis thaliana, UniProt O49686, K59R/N167C); assay: Y2H Pocket Library Screen (HAB1, X-gal); assay type: cell-based
T8 construct: expressed in transfected cells; host or cells: S. cerevisiae Y190 two-hybrid reporter strain
T8 sequence (O49686 whole entry K59R/N167C): as the sequence (O49686 whole entry K59R/A160V) above, with V160A, N167C counted along it
T8 sequence (Q9CAJ0 23-511 partner): as the sequence (Q9CAJ0 23-511 partner) above
Summary of the method: as §1

PYR1 K59R T162K = biological target: T9, PYR1 K59R T162K (Arabidopsis thaliana, UniProt O49686, K59R/T162K); assay: Y2H Pocket Library Screen (HAB1, X-gal); assay type: cell-based
T9 construct: expressed in transfected cells; host or cells: S. cerevisiae Y190
T9 sequence (O49686 whole entry K59R/T162K): as the sequence (O49686 whole entry K59R/A160V) above, with V160A, T162K counted along it
T9 sequence (Q9CAJ0 23-511, further chain): as the sequence (Q9CAJ0 23-511 partner) above
Summary of the method: as §1

PYR1 K59R T162L = biological target: T10, PYR1 K59R T162L (Arabidopsis thaliana, UniProt O49686, K59R/T162L); assay: Y2H Pocket Library Screen (HAB1, X-gal); assay type: cell-based
T10 construct: expressed in transfected cells; host or cells: S. cerevisiae Y190
T10 sequence (O49686 whole entry K59R/T162L): as the sequence (O49686 whole entry K59R/A160V) above, with V160A, T162L counted along it
T10 sequence (Q9CAJ0 23-511 partner): as the sequence (Q9CAJ0 23-511 partner) above
Summary of the method: as §1

PYR1 K59R T162W = biological target: T11, PYR1 K59R T162W (Arabidopsis thaliana, UniProt O49686, K59R/T162W); assay: Y2H Pocket Library Screen (HAB1, X-gal); assay type: cell-based
T11 construct: expressed in transfected cells; host or cells: S. cerevisiae Y190
T11 sequence (O49686 whole entry K59R/T162W): as the sequence (O49686 whole entry K59R/A160V) above, with V160A, T162W counted along it
T11 sequence (Q9CAJ0 23-511, further chain): as the sequence (Q9CAJ0 23-511 partner) above
Summary of the method: as §1

PYR1 K59R V164G = biological target: T12, PYR1 K59R V164G (Arabidopsis thaliana, UniProt O49686, K59R/V164G); assay: Y2H Pocket Library Screen (HAB1, X-gal); assay type: cell-based
T12 construct: expressed in transfected cells; host or cells: S. cerevisiae Y190
T12 sequence (O49686 whole entry K59R/V164G): as the sequence (O49686 whole entry K59R/A160V) above, with V160A, V164G counted along it
T12 sequence (Q9CAJ0 23-511 partner): as the sequence (Q9CAJ0 23-511 partner) above
Summary of the method: as §1

PYR1 K59R V164M = biological target: T13, PYR1 K59R V164M (Arabidopsis thaliana, UniProt O49686, K59R/V164M); assay: Y2H Pocket Library Screen (HAB1, X-gal); assay type: cell-based
T13 construct: expressed in transfected cells; host or cells: S. cerevisiae Y190
T13 sequence (O49686 whole entry K59R/V164M): as the sequence (O49686 whole entry K59R/A160V) above, with V160A, V164M counted along it
T13 sequence (Q9CAJ0 23-511 partner): as the sequence (Q9CAJ0 23-511 partner) above
Summary of the method: as §1

PYR1 K59R V164S = biological target: T14, PYR1 K59R V164S (Arabidopsis thaliana, UniProt O49686, K59R/V164S); assay: Y2H Pocket Library Screen (HAB1, X-gal); assay type: cell-based
T14 construct: expressed in transfected cells; host or cells: S. cerevisiae Y190 two-hybrid reporter strain
T14 sequence (O49686 whole entry K59R/V164S): as the sequence (O49686 whole entry K59R/A160V) above, with V160A, V164S counted along it
T14 sequence (Q9CAJ0 23-511 partner): as the sequence (Q9CAJ0 23-511 partner) above
Summary of the method: as §1

PYR1 K59R V164T = biological target: T15, PYR1 K59R V164T (Arabidopsis thaliana, UniProt O49686, K59R/V164T); assay: Y2H Pocket Library Screen (HAB1, X-gal); assay type: cell-based
T15 construct: expressed in transfected cells; host or cells: S. cerevisiae Y190 two-hybrid reporter strain
T15 sequence (O49686 whole entry K59R/V164T): as the sequence (O49686 whole entry K59R/A160V) above, with V160A, V164T counted along it
T15 sequence (Q9CAJ0 23-511 partner): as the sequence (Q9CAJ0 23-511 partner) above
Summary of the method: as §1

PYR1 K59R V83L = biological target: T16, PYR1 K59R V83L (Arabidopsis thaliana, UniProt O49686, K59R/V83L); assay: Y2H Pocket Library Screen (HAB1, X-gal); assay type: cell-based
T16 construct: expressed in transfected cells; host or cells: S. cerevisiae Y190 yeast two-hybrid reporter strain
T16 sequence (O49686 whole entry K59R/V83L): as the sequence (O49686 whole entry K59R/A160V) above, with V83L, V160A counted along it
T16 sequence (Q9CAJ0 23-511, further chain): as the sequence (Q9CAJ0 23-511 partner) above
Summary of the method: as §1

PYR1 K59R F108V = biological target: T17, PYR1 K59R F108V (Arabidopsis thaliana, UniProt O49686, F108V/K59R); assay: Y2H Pocket Library Screen (HAB1, X-gal); assay type: cell-based
T17 construct: expressed in transfected cells; host or cells: S. cerevisiae Y190 yeast two-hybrid reporter strain
T17 sequence (O49686 whole entry K59R/F108V): as the sequence (O49686 whole entry K59R/A160V) above, with F108V, V160A counted along it
T17 sequence (Q9CAJ0 23-511 partner): as the sequence (Q9CAJ0 23-511 partner) above
Summary of the method: as §1

PYR1 K59R F159A = biological target: T18, PYR1 K59R F159A (Arabidopsis thaliana, UniProt O49686, F159A/K59R); assay: Y2H Pocket Library Screen (HAB1, X-gal); assay type: cell-based
T18 construct: expressed in transfected cells; host or cells: S. cerevisiae Y190 two-hybrid reporter strain
T18 sequence (Q9CAJ0 23-511): as the sequence (Q9CAJ0 23-511 partner) above
T18 sequence (O49686 whole entry K59R/F159A): as the sequence (O49686 whole entry K59R/A160V) above, with F159A, V160A counted along it
Summary of the method: as §1

PYR1 K59R F159M = biological target: T19, PYR1 K59R F159M (Arabidopsis thaliana, UniProt O49686, F159M/K59R); assay: Y2H Pocket Library Screen (HAB1, X-gal); assay type: cell-based
T19 construct: expressed in transfected cells; host or cells: S. cerevisiae Y190
T19 sequence (O49686 whole entry K59R/F159M): as the sequence (O49686 whole entry K59R/A160V) above, with F159M, V160A counted along it
T19 sequence (Q9CAJ0 23-511, further chain): as the sequence (Q9CAJ0 23-511 partner) above
Summary of the method: as §1

[1] = tested on: homozygous PYR1^MANDI expressing transgenic plants; assay: thermal imaging of leaf temperature; assay type: in vivo, Arabidopsis
Description: To investigate if the system is sufficient to control ABA responses in vegetative tissues, we generated homozygous transgenic lines for two 35S-driven lines (E15 and E16) and 2 RBCS-driven lines (F29 and F34). These materials were grown along side wild type plants and a previously constructed 35S::GFP-PYR1 over expression line (Park et al., 2009). These plants were grown until three weeks old and then treated with a solution containing either 2 μM mandipropamid and 0.02% Silwet or a mock treatment containing 0.02% Silwet and the mandipropamid carrier solvent (DMSO). 24 hours after treatment, the leaf temperatures were examined using a thermal imaging camera. It is well known that ABA-induced guard cell closure reduces transpiration, which leads to increases in leaf temperatures. […] Since guard cell aperture is the primary determinant of transpiration rates, thermal imaging is a useful way to indirectly infer relative transpiration rates and guard cell aperture at the whole plant level. As is shown in FIG. 3, mandipropamid treatment of homozygous PYR1^MANDI expressing transgenic plants leads to large changes in leaf temperature (˜2° C. increase) within 24 hours of treatment.
Treatment of plants with abscisic acid leads to the induction of CYP707A cytochrome P450s, which hydroxylate ABA at its 8′ methyl group. […] Thus, ABA applications lose effect over time due to metabolic inactivation. Given that mandipropamid is a non-native molecule, it is likely not a degraded by the CYP707A enzyme system. […] Plants were treated with mock, 1, 5 or 20 μM mandipropamid and then analyzed by thermography at 4 hours, 3 and 6 days after treatment. […] Additionally, control and 1 μM treated plants flowered during the experiment while flowering was prevented in the 5 μM and 20 μM treated mandipropamid plants.

T1 sequence (O49686 whole entry K59R/A160T): as the sequence (O49686 whole entry K59R/A160V) above, with V160T counted along it
T1 sequence (Q9CAJ0 23-511 partner): as the sequence (Q9CAJ0 23-511 partner) above

## N#Cc1c(Cl)cccc1Cl [Dichlobenil, dichlobenil]
PYR1 K59R A160T
  Threshold: 100 µM
PYR1 K59R A160V
  Threshold: 100 µM
PYR1 K59R A160Y
  Threshold: 100 µM
PYR1 K59R E141L
  Threshold: 100 µM
PYR1 K59R H115N
  Threshold: 100 µM
PYR1 K59R L87P
  Threshold: 100 µM
PYR1 K59R M158C
  Threshold: 100 µM
PYR1 K59R N167C
  Threshold: 100 µM
PYR1 K59R T162K
  Threshold: 100 µM
PYR1 K59R T162L
  Threshold: 100 µM
PYR1 K59R T162W
  Threshold: 100 µM
PYR1 K59R V164G
  Threshold: 100 µM
PYR1 K59R V164M
  Threshold: 100 µM
PYR1 K59R V164S
  Threshold: 100 µM
PYR1 K59R V164T
  Threshold: 100 µM
PYR1 K59R V83L
  Threshold: 100 µM

## C#CCOc1ccc(CCNC(=O)C(OCC#C)c2ccc(Cl)cc2)cc1OC (centres unmarked) [Mandipropamid, mandipropamid]
PYR1 K59R F108V
  Threshold: 100 µM
PYR1 K59R F159A
  Threshold: 100 µM
PYR1 K59R F159M
  Threshold: 100 µM
[1]; 1 μM mandipropamid
  flowering during the experiment: flowered
[1]; 2 μM mandipropamid, within 24 hours of treatment
  leaf temperature increase: ~2 °C
[1]; 5 μM mandipropamid
  flowering during the experiment: prevented
  persistence of increased leaf temperature: at least 6 days
[1]; 20 μM mandipropamid
  flowering during the experiment: prevented
  persistence of increased leaf temperature: at least 6 days
[1]; mandipropamid treatment
  time to increased leaf temperature after treatment: ≤ 4 h
